Test results from patent US8013006B2.
Like-named read-outs stand apart in the source and are kept apart here.

Columns and labels:
HCV replicon = experiment: microbe, parasite or virus in culture; format: cell-based
[1] = Hepatitis C virus, 48 h, read-out: Replicon IC5Os μM
[2] = bicistronic HCV replicon, determined by firefly luciferase signal, cells cultured with compound for 2 days, read-out: Replicon IC5Os

SMILES | melting point [°C] | IC50 (HCV replicon; [1]) [µM] | IC50 (HCV replicon; [2]) [µM]
CCOc1ccc2c(C#N)c(-c3ccc(N(C)S(C)(=O)=O)cc3)n(C)c2c1 | 203 to 205 | – | –
CCCOC(=O)Nc1ccc(-c2c(C#N)c3ccc(OC(F)F)cc3n2CC2CC2)cc1 | 125 to 126 | – | –
CCn1c(-c2ccc(NC(=O)COC)cc2)c(C#N)c2ccc(OC(C)C)cc21 | 169 to 173 | – | –
CCn1c(-c2ccc3c(c2)OCO3)c(C#N)c2ccc(OC)cc21 [Compound 22] | 146 to 149 | 0.5 to 2 | –
CCn1c(NC(=O)c2cccc(C)c2)c(C#N)c2ccc(OC)cc21 [Compound 23] | 234 to 235 | < 0.5 | –
CCn1c(NC(C)=O)c(C#N)c2ccc([N+](=O)[O-])cc21 [Compound 25, N-(3-cyano-1-ethyl-6-nitro-1H-indol-2-yl)acetamide] | 291 to 293 | > 2 | –
COc1ccc(-n2cc(C(C)=O)c3ccc(OC)cc32)cc1 [Compound 48] | 138 to 142 | 0.5 to 2 | –
CCn1c(C#Cc2ccc(N)cc2)c(C#N)c2ccc(OC)cc21 [Compound 69] | 163 to 166 | 0.5 to 2 | –
CCn1c(-c2ccc(NC(=O)C3CC3)cc2)c(C#N)c2ccc(OC)cc21 [Compound 81] | 209 to 211 | < 0.5 | –
CCC(=O)Nc1ccc(C#Cc2c(C#N)c3ccc(OC)cc3n2CC)cc1 [Compound 82] | 223 to 228 | 0.5 to 2 | –
CCCn1c(-c2ccc(NS(=O)(=O)CC)cc2)c(C#N)c2ccc(OC)cc21 [Compound 85] | 163 to 165 | < 0.5 | –
CCS(=O)(=O)Nc1ccc(-c2c(C#N)c3ccc(OC)cc3n2C2CCC2)cc1 [Compound 86] | 158 to 160 | < 0.5 | –
CCn1c(-c2ccc(NS(=O)(=O)C(C)C)cc2)c(C#N)c2ccc(OC)cc21 [Compound 88] | 209 to 213 | 0.5 to 2 | –
CCn1c(C#Cc2ccccc2)c(C#N)c2ccc(C(N)=O)cc21 [Compound 94] | 262 to 265 | 0.5 to 2 | –
CCn1c(C#Cc2cccc(OC)c2)c(C#N)c2ccc(C(N)=O)cc21 [Compound 95] | 248 to 251 | 0.5 to 2 | –
CCn1c(C#Cc2ccc(N)cc2)c(C#N)c2ccc(C(N)=O)cc21 [Compound 96] | 243 to 250 | 0.5 to 2 | –
COc1ccc(-n2cc(C#N)c3ccc(Cl)cc32)cc1 [Compound 119] | 126 to 128 | 0.5 to 2 | –
CCn1c(C#Cc2ccc(NS(=O)(=O)CC)cc2)c(C#N)c2ccc(OC)cc21 [Compound 131] | 199 to 204 | 0.5 to 2 | –
CCn1c(C#Cc2ccc(NS(=O)(=O)C(C)C)cc2)c(C#N)c2ccc(OC)cc21 [Compound 132] | 209 to 212 | 0.5 to 2 | –
CCn1c(C#Cc2ccccc2Cl)c(C#N)c2ccc(OC)cc21 [Compound 134] | 155 to 157 | 0.5 to 2 | –
CCn1c(C#Cc2ccc(NC(=O)COC)cc2)c(C#N)c2ccc(OC)cc21 [Compound 139] | 191 to 195 | 0.5 to 2 | –
CCn1c(C#Cc2cccc(C)c2)c(C#N)c2ccc(OC)cc21 [Compound 144] | 97 to 100 | 0.5 to 2 | –
CCn1c(C#Cc2ccc(CNS(=O)(=O)CC)cc2)c(C#N)c2ccc(OC)cc21 [Compound 157, Ethanesulfonic acid [4-(3-cyano-1-ethyl-6-methoxy-1H-indol-2-ylethynyl)-phenyl]methyl amide] | 149 to 153 | – | –
CCn1c(-c2ccc(CNS(=O)(=O)CCN3CCOCC3)cc2)c(C#N)c2ccc(OC)cc21 [Compound 668, 2-morpholin-4-yl-ethanesulfonic acid [4-(3-cyano-1-ethyl-6-methoxy-1H-indol-2-yl)-phenyl]methyl amide] | 171 to 174 | – | –
CCn1c(-c2cccc(N3CCNC3=O)c2)c(C#N)c2ccc(OC)cc21 [Compound 770] | – | – | > 2

SMILES | melting point [°C] | IC50 (HCV replicon; [1]) [µM] | IC50 (HCV replicon; [2]) [µM]
CCCn1c(-c2ccc(N3CCCS3(=O)=O)cc2)c(C#N)c2ccc(OCCOC(C)=O)cc21 [Compound 775] | – | – | 0.5 to 2
CCOc1ccc2c(C#N)c(-c3ccc(N4CCNC4=O)cc3)n(CC)c2c1 [Compound 778] | – | – | < 0.5
CCCn1c(-c2cccc(N3CCCS3(=O)=O)c2)c(C#N)c2ccc(OC)cc21 [Compound 783] | – | – | > 2
CCn1c(N2CCC(NC(=O)OC(C)(C)C)CC2)c(C#N)c2ccc(C(F)(F)F)cc21 [Compound 786] | – | – | > 2
COC(=O)Nc1cccc(-c2c(C#N)c3ccc(OC)cc3n2Cc2ccccc2)c1 [Compound 787] | – | – | > 2
CCCCOC(=O)Nc1cccc(-c2c(C#N)c3ccc(OC)cc3n2Cc2ccccc2)c1 [Compound 788] | – | – | > 2
CCn1c(-c2ccc(NS(=O)(=O)C(C)C)cc2)c(C#N)c2cc(OC)ccc21 [Compound 790] | – | < 0.5 | –
CCn1c(-c2ccc(N)cc2)c(C#N)c2cc(O)ccc21 [Compound 797] | – | – | 0.5 to 2
CCn1c(-c2ccc(NC(=O)c3cc(C)on3)cc2)c(C#N)c2ccc(OC(C)C)cc21 [Compound 798] | – | – | > 2
CCCC(=O)Nc1ccc(-c2c(C#N)c3ccc(OC)cc3n2CC)cc1 [Compound 799] | – | < 0.5 | –
CCn1c(-c2ccc(NC(=O)c3ccco3)cc2)c(C#N)c2ccc(OC)cc21 [Compound 803] | – | – | > 2
CCn1c(-c2ccc(NC(=O)c3cc(C)on3)cc2)c(C#N)c2ccc(OC)cc21 [Compound 804] | – | – | > 2
N#Cc1c(-c2ccc(N3CCCC3=O)cc2)n(CC2CC2)c2cc(OC(F)F)ccc12 [Compound 806] | – | – | 0.5 to 2
CCCn1c(-c2ccc(N3CCCC3=O)cc2)c(C#N)c2ccc(OC(F)F)cc21 [Compound 808] | – | – | 0.5 to 2
CC(C)n1c(-c2ccc(N3CCCC3=O)cc2)c(C#N)c2ccc(OC(F)F)cc21 [Compound 809] | – | – | 0.5 to 2
N#Cc1c(-c2ccc(N3CCCC3=O)cc2)n(C2CCC2)c2cc(OC(F)F)ccc12 [Compound 810] | – | – | 0.5 to 2
N#Cc1c(-c2ccc(N)cc2)n(C2CCC2)c2cc(OC(F)F)ccc12 [Compound 811] | – | – | > 2
CCCS(=O)(=O)Nc1ccc(-c2c(C#N)c3ccc(OC(F)F)cc3n2C2CCC2)cc1 [Compound 812] | – | – | 0.5 to 2
N#Cc1c(-c2ccc(NS(=O)(=O)C3CC3)cc2)n(C2CCC2)c2cc(OC(F)F)ccc12 [Compound 813] | – | – | < 0.5
CCCNC(=O)Nc1cccc(-c2c(C#N)c3ccc(OC)cc3n2Cc2ccccc2)c1 [Compound 817] | – | – | > 2
CCn1c(-c2cc(N3CCOC3=O)ccc2F)c(C#N)c2ccc(OC(C)C)cc21 [Compound 820] | – | – | 0.5 to 2
CCn1c(-c2ccc(F)c(N3CCOC3=O)c2)c(C#N)c2ccc(OC(C)C)cc21 [Compound 821] | – | – | > 2
COCCOC(=O)Nc1ccc(-c2c(C#N)c3ccc(OC(F)F)cc3n2C2CCC2)cc1 [Compound 823] | – | – | > 2
CCCn1c(-c2ccc(NC(=O)OC(C)C)cc2)c(C#N)c2ccc(OC(F)F)cc21 [Compound 824] | – | – | > 2
CCCn1c(-c2ccc(NC(=O)OCCOC)cc2)c(C#N)c2ccc(OC(F)F)cc21 [Compound 825] | – | – | > 2

SMILES | melting point [°C] | IC50 (HCV replicon; [1]) [µM] | IC50 (HCV replicon; [2]) [µM]
CCCn1c(-c2ccc(NC(=O)OCCF)cc2)c(C#N)c2ccc(OC(F)F)cc21 [Compound 826] | – | – | 0.5 to 2
N#Cc1c(-c2ccc(N3CCCS3(=O)=O)cc2)[nH]c2cc(OC(F)(F)F)ccc12 [Compound 829] | – | – | 0.5 to 2
CCn1c(-c2ccc(OC(F)F)cc2)c(C#N)c2ccc(NS(=O)(=O)CC)cc21 [Compound 830] | – | – | 0.5 to 2
CCCS(=O)(=O)Nc1ccc2c(C#N)c(-c3ccc(OCC)cc3)n(CC)c2c1 [Compound 836] | – | – | > 2
CCOc1ccc(-c2c(C#N)c3ccc(NS(=O)(=O)C4CC4)cc3n2CC)cc1 [Compound 837] | – | – | > 2
CCn1c(-c2ccc(N(C)S(=O)(=O)C3CC3)cc2)c(C#N)c2ccc(OCCF)cc21 [Compound 840] | – | – | > 2
CCCS(=O)(=O)N1CCN(c2c(C#N)c3ccc(C(F)(F)F)cc3n2CC)CC1 [Compound 841] | – | – | > 2
CCn1c(N2CCN(S(=O)(=O)c3ccccc3)CC2)c(C#N)c2ccc(C(F)(F)F)cc21 [Compound 843] | – | – | > 2
CCCn1c(-c2ccc(NC(=O)NC(C)C)cc2)c(C#N)c2ccc(OC)cc21 [Compound 846] | – | – | 0.5 to 2
CCCCNC(=O)Nc1ccc(-c2c(C#N)c3ccc(OC)cc3n2CCC)cc1 [Compound 847] | – | – | 0.5 to 2
CCCn1c(-c2ccc(NC(=O)OC)cc2)c(C#N)c2ccc(OC)cc21 [Compound 849] | – | – | 0.5 to 2
CCCn1c(-c2ccc(N(CC)S(=O)(=O)CC)cc2)c(C#N)c2ccc(OC)cc21 [Compound 852] | – | – | 0.5 to 2
CCn1c(-c2ccc(C(=O)N3CC3)cc2)c(C#N)c2ccc(OC)cc21 [Compound 853] | – | – | < 0.5
CCn1c(-c2ccc(NC(=O)C3CC3)cc2)c(C#N)c2ccccc21 [Compound 854] | – | 0.5 to 2 | –
CCn1c(-c2ccc(NC(=O)C(C)C)cc2)c(C#N)c2ccccc21 [Compound 855] | – | 0.5 to 2 | –
CCn1c(-c2ccc(NC(=O)CCl)cc2)c(C#N)c2cc(OC)ccc21 [Compound 856] | – | – | > 2
CCn1c(-c2ccc(NC(=O)COC)cc2)c(C#N)c2cc(OC)ccc21 [Compound 857] | – | – | 0.5 to 2
CCn1c(-c2ccc(NC(=O)C(C)C)cc2)c(C#N)c2cc(OC)ccc21 [Compound 858] | – | < 0.5 | –
CCn1c(-c2ccc(C(=O)NC)cc2)c(C#N)c2cc(OC)ccc21 [Compound 860] | – | – | 0.5 to 2
CCn1c(-c2ccc(C(=O)N3CC3)cc2)c(C#N)c2cc(OC)ccc21 [Compound 861] | – | 0.5 to 2 | –
CCn1c(-c2ccc(C(=O)N3CCC3)cc2)c(C#N)c2cc(OC)ccc21 [Compound 862] | – | – | > 2
CCn1c(-c2ccc(N3CCOC3=O)cc2)c(C#N)c2ccc(OC)cc21 [Compound 863] | – | 0.5 to 2 | –
CCn1c(-c2cccc(N3CCOC3=O)c2)c(C#N)c2ccc(OC)cc21 [Compound 864] | – | – | 0.5 to 2
CCCn1c(-c2ccc(N3CCCS3(=O)=O)cc2)c(C=O)c2ccc(OC)cc21 [Compound 865] | – | – | > 2
